Results reported in patent US20230295235A1, “COMPOUNDS TARGETING ALPHA4-BETA7 INTEGRIN” (ZEALAND PHARMA A/S, priority 2020, published 2023).

Target: T1, α4β7 integrin (MAdCAM-1 binding, α4β7-positive Th memory cells) (Homo sapiens, UniProt P13612+P26010)
T1 construct: endogenous in cells; host or cells: human whole blood
T1 sequence (P13612 34-1032): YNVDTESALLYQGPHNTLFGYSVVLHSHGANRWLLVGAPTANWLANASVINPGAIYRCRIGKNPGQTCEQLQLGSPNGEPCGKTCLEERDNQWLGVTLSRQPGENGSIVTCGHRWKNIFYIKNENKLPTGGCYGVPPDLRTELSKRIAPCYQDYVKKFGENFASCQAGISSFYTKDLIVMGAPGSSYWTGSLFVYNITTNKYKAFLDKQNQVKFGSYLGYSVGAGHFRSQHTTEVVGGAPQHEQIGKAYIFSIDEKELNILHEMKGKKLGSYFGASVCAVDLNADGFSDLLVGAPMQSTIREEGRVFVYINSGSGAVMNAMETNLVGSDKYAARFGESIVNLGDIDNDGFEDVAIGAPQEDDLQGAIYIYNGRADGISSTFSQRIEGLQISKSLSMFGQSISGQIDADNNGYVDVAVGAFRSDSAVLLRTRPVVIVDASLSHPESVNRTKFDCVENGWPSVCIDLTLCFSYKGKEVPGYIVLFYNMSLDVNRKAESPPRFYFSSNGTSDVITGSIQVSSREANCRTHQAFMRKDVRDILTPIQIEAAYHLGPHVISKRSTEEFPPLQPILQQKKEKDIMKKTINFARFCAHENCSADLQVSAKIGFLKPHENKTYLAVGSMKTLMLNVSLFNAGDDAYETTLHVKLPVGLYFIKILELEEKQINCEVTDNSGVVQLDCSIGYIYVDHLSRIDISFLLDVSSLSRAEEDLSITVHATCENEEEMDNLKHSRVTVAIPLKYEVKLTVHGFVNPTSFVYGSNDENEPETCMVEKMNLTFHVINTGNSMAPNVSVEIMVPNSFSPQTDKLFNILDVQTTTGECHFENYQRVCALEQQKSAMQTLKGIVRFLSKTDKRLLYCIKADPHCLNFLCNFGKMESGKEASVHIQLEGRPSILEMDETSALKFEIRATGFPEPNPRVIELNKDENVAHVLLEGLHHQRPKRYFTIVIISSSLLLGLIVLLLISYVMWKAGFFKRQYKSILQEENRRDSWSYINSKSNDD
T1 sequence (P26010 20-798): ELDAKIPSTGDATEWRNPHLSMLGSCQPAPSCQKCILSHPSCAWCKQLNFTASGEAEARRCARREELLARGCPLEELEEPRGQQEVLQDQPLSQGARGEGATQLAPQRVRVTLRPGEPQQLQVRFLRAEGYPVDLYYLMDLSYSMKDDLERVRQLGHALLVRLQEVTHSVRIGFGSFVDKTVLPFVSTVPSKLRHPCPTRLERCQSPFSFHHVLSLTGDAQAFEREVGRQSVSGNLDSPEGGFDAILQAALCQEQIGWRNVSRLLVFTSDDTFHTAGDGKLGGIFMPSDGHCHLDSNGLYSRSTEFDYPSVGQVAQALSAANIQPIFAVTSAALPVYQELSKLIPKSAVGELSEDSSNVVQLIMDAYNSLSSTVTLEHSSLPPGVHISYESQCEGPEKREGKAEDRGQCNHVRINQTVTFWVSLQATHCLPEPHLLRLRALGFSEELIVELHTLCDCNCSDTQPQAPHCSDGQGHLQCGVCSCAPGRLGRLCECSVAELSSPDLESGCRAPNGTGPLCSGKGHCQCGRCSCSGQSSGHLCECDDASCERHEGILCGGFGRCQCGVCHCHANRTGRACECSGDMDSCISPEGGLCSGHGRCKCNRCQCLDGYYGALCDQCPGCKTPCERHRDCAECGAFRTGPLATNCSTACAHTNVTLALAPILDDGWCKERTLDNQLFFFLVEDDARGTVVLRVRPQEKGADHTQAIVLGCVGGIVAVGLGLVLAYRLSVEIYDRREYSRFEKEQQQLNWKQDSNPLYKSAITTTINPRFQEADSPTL
Test: Competition assay: inhibition of biotinylated rhMAdCAM-1-Fc binding to α4β7-positive Th memory cells in whole blood (FACS receptor occupancy)
Format: cell-based
Settings: single donor, 4 mM MnCl2, α4β7-positive Th memory cells, read-out: IC50, inhibition of MAdCAM-1 binding to primary cells
Procedure: The compound of Example 1 was used in competition assay on CD4+ integrin α4+β7-|o memory T cells.
Receptor occupancy in primary cells was determined by measuring the amount of biotinylated human recombinant MAdCAM-1-Fc or human recombinant VCAM-1-Fc bound to selected cell populations using flow cytometry. Human recombinant MAdCAM-1-Fc or human recombinant VCAM-1-Fc (R&D systems) were biotinylated using commercially available reagents and protocol (Pierce).
Whole blood was collected from human donors in sodium heparin tubes. A volume of 100 µL of blood was incubated with the compound of Example 1 and 4 mM MnCl2 for 1 hour at room temperature. Cells were washed twice with 1 mL of 1X Dulbecco’s phosphate buffered saline (DPBS) calcium magnesium free (CMF) (ThermoFisher Scientific) and resuspended in 100 µL of DPBS CMF. […]
Fluorescence-activated cell sorting (FACS) data was acquired by electronic gating on the basis of forward versus side scatter. […] Cell population were determined using the following markers: CD45+, CD3+, CD4+,CD45RO+, CD49d+, integrin β7, biotinylated ligands.
Compound receptor occupancy was defined as the decrease in the number of integrin β7+ or integrin β7-lo cells binding biotinylated rhMAdCAM-1 or rhVCAM-1, respectively. Receptor occupancy was calculated with the following equation: […]

With `CC(C)C[C@@H]1NC(=O)c2ccc(-c3ccc(N4CCN(C(=O)c5ccccc5-c5ccccc5C(=O)N5CCN(c6ccc(-c7ccc8cc7CNC(=O)[C@@H]7CCCN7[C@H](C(=O)NC(C)(C)C)[C@H](C)NC(=O)[C@H]([C@@H](C)O)NC(=O)[C@H](CC(=O)O)NC(=O)[C@H](CC(C)C)NC8=O)cc6)CC5)CC4)cc3)c(c2)CNC(=O)[C@@H]2CCCN2[C@H](C(=O)NC(C)(C)C)[C@H](C)NC(=O)[C@H]([C@@H](C)O)NC(=O)[C@H](CC(=O)O)NC1=O` [Example 1, 2,2′-((S,S,S,S,S,S,1^2,8S,11S,14S,17S,18S)-((([1,1′-Biphenyl]-2,2′-Dicarbonyl)-Bis(Piperazine-4,1-Diyl))Bis(4,1-Phenylene))Bis(18-(Tert-Butylcarbamoyl)-14-((R)-1-Hydroxyethyl)-8-Isobutyl-17-Methyl-2,6,9,12,15-Pentaoxo-3,7,10,13,16-Pentaaza-1(2,1)-Pyrrolidina-5(1,3)-Benzenacyclooctadecaphane-5^6,11-Diyl))-Diacetic Acid] the IC50 was about 87 nM.
